# Laboratory results as given in ChEMBL document CHEMBL5126636, “Antibacterial Gilvocarcin-Type Aryl-C-Glycosides from a Soil-Derived Streptomyces Species” (2022).
# Assays:
# Assay type in all cases: functional
# [1] = tested on: Staphylococcus aureus; test: Antibacterial activity against Staphylococcus aureus ATCC 6538 by broth microdilution method
# [2] = tested on: Staphylococcus aureus; test: Antibacterial activity against methicillin resistant Staphylococcus aureus ATCC 43300 by broth microdilution method
# [3] = tested on: Pseudomonas aeruginosa; test: Antibacterial activity against Pseudomonas aeruginosa ATCC 10145 by broth microdilution method
# [4] = tested on: Escherichia coli; test: Antibacterial activity against Escherichia coli ATCC 11775 by broth microdilution method
# [5] = tested on: Candida albicans; test: Antibacterial activity against Candida albicans ATCC 10231 by broth microdilution method
# [6] = tested on: Nakaseomyces glabratus; test: Antibacterial activity against Candida Candida glabrata ATCC 2001 by broth microdilution method
compound,measurement,setting,value
C=Cc1cc(OC)c2c(c1)c(=O)oc1c2cc(OC)c2c(O)ccc([C@H]3O[C@@H]([C@@H](C)O)[C@H](O)[C@H]3O)c21,MIC,[1],0.5 µg/mL
same,MIC,[2],0.25 µg/mL
same,MIC,[3],> 64 µg/mL
same,MIC,[4],> 64 µg/mL
same,MIC,[5],> 64 µg/mL
same,MIC,[6],> 64 µg/mL
C=Cc1cc(OC)c2c(c1)c(=O)oc1c2cc(OC)c2c(OC(C)=O)ccc([C@H]3O[C@@H]([C@@H](C)OC(C)=O)[C@H](OC(C)=O)[C@H]3OC(C)=O)c21,MIC,[1],> 64 µg/mL
same,MIC,[2],> 64 µg/mL
same,MIC,[3],> 64 µg/mL
same,MIC,[4],> 64 µg/mL
same,MIC,[5],> 64 µg/mL
same,MIC,[6],> 64 µg/mL
CCc1cc(OC)c2c(c1)c(=O)oc1c2cc(OC)c2c(O)ccc([C@H]3O[C@@H]([C@@H](C)O)[C@H](O)[C@H]3O)c21,MIC,[1],> 64 µg/mL
same,MIC,[2],> 64 µg/mL
same,MIC,[3],> 64 µg/mL
same,MIC,[4],> 64 µg/mL
same,MIC,[5],> 64 µg/mL
same,MIC,[6],> 64 µg/mL
COc1cc2c(oc(=O)c3cc(C(O)CCl)cc(OC)c32)c2c([C@H]3O[C@@H]([C@@H](C)O)[C@H](O)[C@H]3O)ccc(O)c12 (stereo partly drawn),MIC,[1],> 64 µg/mL
same,MIC,[2],> 64 µg/mL
same,MIC,[3],> 64 µg/mL
same,MIC,[4],> 64 µg/mL
same,MIC,[5],> 64 µg/mL
same,MIC,[6],> 64 µg/mL
COc1cc2c(oc(=O)c3cc([C@H]4CC[C@H]4c4cc(OC)c5c(c4)c(=O)oc4c5cc(OC)c5c(O)ccc([C@H]6O[C@@H]([C@@H](C)O)[C@H](O)[C@H]6O)c54)cc(OC)c32)c2c([C@H]3O[C@@H]([C@@H](C)O)[C@H](O)[C@H]3O)ccc(O)c12,MIC,[1],8 µg/mL
same,MIC,[2],4 µg/mL
same,MIC,[3],> 64 µg/mL
same,MIC,[4],> 64 µg/mL
same,MIC,[5],> 64 µg/mL
same,MIC,[6],> 64 µg/mL
COc1cc2c(oc(=O)c3cc(C(C)C)cc(OC)c32)c2c([C@H]3O[C@@H]([C@@H](C)O)[C@H](O)[C@H]3O)ccc(O)c12,MIC,[1],> 64 µg/mL
same,MIC,[2],16 µg/mL
same,MIC,[3],> 64 µg/mL
same,MIC,[4],> 64 µg/mL
same,MIC,[5],> 64 µg/mL
same,MIC,[6],> 64 µg/mL
COc1cc2c(oc(=O)c3cc(C)cc(OC)c32)c2c([C@H]3O[C@@H]([C@@H](C)OC(C)=O)[C@H](OC(C)=O)[C@H]3OC(C)=O)ccc(OC(C)=O)c12,MIC,[1],> 64 µg/mL
same,MIC,[2],> 64 µg/mL
same,MIC,[3],> 64 µg/mL
same,MIC,[4],> 64 µg/mL
same,MIC,[5],> 64 µg/mL
same,MIC,[6],> 64 µg/mL
COc1cc2c(oc(=O)c3cc(CO)cc(OC)c32)c2c([C@H]3O[C@@H]([C@@H](C)O)[C@H](O)[C@H]3O)ccc(O)c12,MIC,[1],> 64 µg/mL
same,MIC,[2],> 64 µg/mL
same,MIC,[3],> 64 µg/mL
same,MIC,[4],> 64 µg/mL
same,MIC,[5],> 64 µg/mL
same,MIC,[6],> 64 µg/mL
C=Cc1cc(OC)c2c(c1)c(=O)oc1c2cc(OC)c2c(O)ccc([C@@H]3O[C@@H]([C@@H](C)O)[C@H](O)[C@H]3O)c21,MIC,[1],64 µg/mL
same,MIC,[2],16 µg/mL
same,MIC,[3],> 64 µg/mL
same,MIC,[4],> 64 µg/mL
same,MIC,[5],> 64 µg/mL
same,MIC,[6],> 64 µg/mL
COc1cc2c(oc(=O)c3cc([C@H](C)OC(C)=O)cc(OC)c32)c2c([C@H]3O[C@@H]([C@@H](C)OC(C)=O)[C@H](OC(C)=O)[C@H]3OC(C)=O)ccc(OC(C)=O)c12,MIC,[1],> 64 µg/mL
same,MIC,[2],> 64 µg/mL
same,MIC,[3],> 64 µg/mL
same,MIC,[4],> 64 µg/mL
same,MIC,[5],> 64 µg/mL
same,MIC,[6],> 64 µg/mL
COc1cc2c(oc(=O)c3cc(C(O)CO)cc(OC)c32)c2c([C@H]3O[C@@H]([C@@H](C)O)[C@H](O)[C@H]3O)ccc(O)c12 (stereo partly drawn),MIC,[1],> 64 µg/mL
same,MIC,[2],> 64 µg/mL
same,MIC,[3],> 64 µg/mL
same,MIC,[4],> 64 µg/mL
same,MIC,[5],> 64 µg/mL
same,MIC,[6],> 64 µg/mL
COc1cc2c(oc(=O)c3cc([C@H](C)O)cc(OC)c32)c2c([C@H]3O[C@@H]([C@@H](C)O)[C@H](O)[C@H]3O)ccc(O)c12,MIC,[1],> 64 µg/mL
same,MIC,[2],> 64 µg/mL
same,MIC,[3],> 64 µg/mL
same,MIC,[4],> 64 µg/mL
same,MIC,[5],> 64 µg/mL
same,MIC,[6],> 64 µg/mL
COc1cc2c(oc(=O)c3cc(CCO)cc(OC)c32)c2c([C@H]3O[C@@H]([C@@H](C)O)[C@H](O)[C@H]3O)ccc(O)c12,MIC,[1],32 µg/mL
same,MIC,[2],64 µg/mL
same,MIC,[3],> 64 µg/mL
same,MIC,[4],> 64 µg/mL
same,MIC,[5],> 64 µg/mL
same,MIC,[6],> 64 µg/mL
C=Cc1cc(OC)c2c(c1)c(=O)oc1c3cccc(O)c3c(OC)cc12,MIC,[1],> 64 µg/mL
same,MIC,[2],> 64 µg/mL
same,MIC,[3],> 64 µg/mL
same,MIC,[4],> 64 µg/mL
same,MIC,[5],> 64 µg/mL
same,MIC,[6],> 64 µg/mL
COc1cc2c(oc(=O)c3cc(C)cc(OC)c32)c2c([C@H]3O[C@@H]([C@@H](C)O)[C@H](O)[C@H]3O)ccc(O)c12,MIC,[1],1 µg/mL
same,MIC,[2],2 µg/mL
same,MIC,[3],> 64 µg/mL
same,MIC,[4],> 64 µg/mL
same,MIC,[5],> 64 µg/mL
same,MIC,[6],> 64 µg/mL
C=Cc1cc(OC)c2c(c1)c(=O)oc1c2cc(OC)c2c(O)ccc([C@@H]3O[C@@H]([C@H](O)CO)[C@H](O)[C@H]3O)c21,MIC,[1],16 µg/mL
same,MIC,[2],8 µg/mL
same,MIC,[3],> 64 µg/mL
same,MIC,[4],> 64 µg/mL
same,MIC,[5],> 64 µg/mL
same,MIC,[6],> 64 µg/mL
O=C(O)c1cn(C2CC2)c2cc(N3CCNCC3)c(F)cc2c1=O [CIPROFLOXACIN],MIC,[1],0.25 µg/mL
same,MIC,[2],0.5 µg/mL
